# Experimental data as given in US12116343B2, “Inhibitors of APOL1 and methods of using same” (Vertex Pharmaceuticals Incorporated, priority 2020, dated 2024).
# Molecular target: T1, APOL1 G1 Protein (Homo sapiens, UniProt O14791, I384M/S342G)
# T1 sequence (O14791 28-398 S342G/I384M): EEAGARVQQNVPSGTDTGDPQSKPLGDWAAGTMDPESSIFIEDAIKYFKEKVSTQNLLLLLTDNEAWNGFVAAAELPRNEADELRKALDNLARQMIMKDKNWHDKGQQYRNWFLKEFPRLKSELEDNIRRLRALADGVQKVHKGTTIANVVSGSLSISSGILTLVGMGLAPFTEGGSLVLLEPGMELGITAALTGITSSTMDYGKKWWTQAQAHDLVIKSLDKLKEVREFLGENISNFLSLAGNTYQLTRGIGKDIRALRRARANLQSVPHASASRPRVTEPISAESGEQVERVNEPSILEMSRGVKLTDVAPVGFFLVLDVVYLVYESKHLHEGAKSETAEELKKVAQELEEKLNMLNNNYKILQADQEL
# Test: Trypanosoma brucei brucei lysis assay using APOL1 recombinant protein (AlamarBlue viability)
# Format: cell-based
# Conditions: Trypanosoma brucei brucei lysis, recombinant APOL1, AlamarBlue; read-out: Trypanosoma Assay (IC50)
# Text: Trypanosoma brucei brucei is a blood stream parasite to which human, gorillas and baboon are immune due to the presence of the APOL1 protein in their HDL particles. The protein is uptaken by the parasite via the TbHpHb receptor located in its flagellar pocket and is bonded by the Hpr protein contained in the HDL particles which triggers the receptor endocytosis by the parasite.
# Following endocytosis, the formed vesicle containing the HDL particle matures from early to late endosome, and subsequently to lysosome. The concomitant pH change in the lumen of the vesicle triggers the insertion of the APOL1 protein into the membrane of the late endosome/lysosome and hereby triggers lysosomal membrane premeabilisation and as a further downstream event, trypanosome lysis. Trypanosoma brucei brucei is sensitive to lysis by all three APOL1 variants (G0, G1, and G2).
# The Trypanosoma brucei brucei lysis assay is a lysis assay of the parasite using recombinant APOL1 protein variant followed by a fluorescent detection method of viability by the addition of AlamarBlue reagent to the assay well, a general metabolic redox indicator (AlamarBlue assay).
# Briefly, the AlamarBlue active compound, the resazurin, a blue, water soluble, non-toxic and cell permeable molecule, which can be followed by absorbance, is reduced by various metabolic pathways into resorufin, a red compound which can be followed by either absorbance or fluorescence. The assay allows the calculation of the percent viability (percent of living Trypanosomes remaining in each well) at the end of a lysis relative to the untreated condition by interpolation of fluorescent values (FLU) on a standard curve with a known amount of seeded trypanosome/well.
# Trypanosoma brucei brucei (ATCC, Cat. No. PRA-382) • Lister 427 VSG 221 bloodstream form.
# Thaw/Expansion Media (ATCC Medium 2834 Modified HMI-9 Medium)
# Assay Media (No Phenol Red/No FBS): Make on Day of Use
# Hypoxanthine Stock (100×)-9 (10×)
# Equipment • El-Clip Tip pipette 12 channel adjustable 2-125 μL, Cat. No. 4672070BT • ThermoFisher MultiDrop 384, Cat. No. 5840300 • Multidrop • Agilent Bravo, Cat. No. G5409A • Bravo • SpectraMax M5
# Assay Ready Plates (ARPs) • ARPs comes in two formats: • […] final top concentration with a 2.5 fold dilution down. • […] final top concentration with a 3 fold dilution down. • Both have a 10 point Dose response. • 0.1% DMSO final in the Black Assay Plate. • Compounds are diluted 1000 fold in the Black Assay Plate. • Each plate is designed for 14 compounds in duplicate. • In the final Black Assay Plate:
# Trypanosoma brucei brucei Culture
# Step 2, Day 4 • Centrifuge at 800×g for 5 minutes at room temperature. • Resuspend in 1 mL media. • Make a 1:25 fold dilution (10 μL/240 μL media). • Count on a hemocytometer (after adding parasites). • Let sit for 1-2 minutes for the parasites to settle. • Count should be approximately 100 viable motile parasites/16 grid or approximately 25×10^6 parasites/flask. • Passage the parasites by adding 1×10^6 parasites/T75 flask in 20 mL media. • Passage the parasites by adding 2.33×10^6 parasites/T175 flask in 46.6 mL media. • For every T75 flask should make enough for approximately 1.5×384 well assay plates. • For every T175 flask should make enough for approximately 3.8×384 well assay plates.
# Step 3, Day 6 • Centrifuge at 800×g for 5 minutes. • Resuspend in 3 mL assay media (No phenol red, no FBS) per 75 starting flask. • Resuspend in 7 mL assay media (No phenol red, no FBS) per 175 flask • Make a 1:25 fold dilution. • Count by hemocytometer. • Every T75 flask set up should have approximately 75×10^6 parasites/flask (verify doubling time=8.7 hrs±1 hr). • Every T175 flask set up should have approximately 175×10^6 parasites/flask (verify doubling time=8.7 hrs±1 hr). • Require 46×10^6 parasites per 384 well plate (at 120,000 parasites per well). Protocol B […]
row,Compound,IC50 [µM]
1,CCC1(O)CN(C(=O)[C@H]2C[C@H](c3c(-c4ccc(F)cc4)[nH]c4c(F)cc(F)cc43)C2)C1 [Compound 112],> 1
2,O=C([C@H]1C[C@H](c2c(-c3ccc(F)cc3)[nH]c3c(F)cc(F)cc32)C1)N1CC2(CC(O)C2)C1 [Compound 137],> 1
3,O=C([C@H]1C[C@H](c2c(-c3ccc(F)cc3)[nH]c3c(F)cc(F)cc32)C1)N1CC(n2cccn2)C1 [Compound 96],> 1
4,O=C([C@H]1C[C@H](c2c(-c3ccc(F)cc3)[nH]c3c(F)cc(F)cc32)C1)N1CCC(CCO)CC1 [Compound 134],> 1
5,O=C(NC1CC(O)C1)[C@H]1C[C@H](c2c(-c3ccc(F)cc3)[nH]c3c(F)cc(F)cc32)C1 (stereo partly drawn) [Compound 5],0.25 to 1
6,CCN(CCO)C(=O)[C@H]1C[C@H](c2c(-c3ccc(F)cc3)[nH]c3c(F)cc(F)cc32)C1 [Compound 124],0.25 to 1
7,CC(O)CNC(=O)[C@H]1C[C@H](c2c(-c3ccc(F)cc3)[nH]c3c(F)cc(F)cc32)C1 (stereo partly drawn) [Compound 167],0.25 to 1
8,O=C([C@H]1C[C@H](c2c(-c3ccc(F)cc3)[nH]c3c(F)cc(F)cc32)C1)N1CC[C@H](CO)C1 [Compound 140],> 1
9,NC(=O)[C@H]1C[C@H](c2c(-c3ccc(F)cc3)[nH]c3c(F)cc(F)cc32)C1 [Compound 169],< 0.25
10,O=C1CC[C@H](NC(=O)[C@H]2C[C@H](c3c(-c4ccc(F)cc4)[nH]c4c(F)cc(F)cc43)C2)C1 [Compound 139],0.25 to 1
11,CC(O)CN(CCO)C(=O)[C@H]1C[C@H](c2c(-c3ccc(F)cc3)[nH]c3c(F)cc(F)cc32)C1 (mixture of isomers) [Compound 129],< 0.25
12,O=C1NCC[C@@H]1NC(=O)[C@H]1C[C@H](c2c(-c3ccc(F)cc3)[nH]c3c(F)cc(F)cc32)C1 [Compound 162],0.25 to 1
13,O=C([C@H]1C[C@H](c2c(-c3ccc(F)cc3)[nH]c3c(F)cc(F)cc32)C1)N1CCCC[C@H]1CO [Compound 146],0.25 to 1
14,O=C1CCC(NC(=O)[C@H]2C[C@H](c3c(-c4ccc(F)cc4)[nH]c4c(F)cc(F)cc43)C2)C1 (stereo partly drawn) [Compound 159],> 1
15,O=C([C@H]1C[C@H](c2c(-c3ccc(F)cc3)[nH]c3c(F)cc(F)cc32)C1)N1CC[C@H](CO)[C@H](O)C1 [Compound 100],> 1
16,O=C([C@H]1C[C@H](c2c(-c3ccc(F)cc3)[nH]c3c(F)cc(F)cc32)C1)N1C[C@H]2C[C@@]2(CO)C1 [Compound 98],> 1
17,CC(C)N(CCO)C(=O)[C@H]1C[C@H](c2c(-c3ccc(F)cc3)[nH]c3c(F)cc(F)cc32)C1 [Compound 123],0.25 to 1
18,O=C([C@H]1C[C@H](c2c(-c3ccc(F)cc3)[nH]c3c(F)cc(F)cc32)C1)N1CCN(CCO)CC1 [Compound 126],> 1
19,CCN(C(=O)[C@H]1C[C@H](c2c(-c3ccc(F)cc3)[nH]c3c(F)cc(F)cc32)C1)C(C)CO (mixture of isomers) [Compound 111],0.25 to 1
20,O=C([C@H]1C[C@H](c2c(-c3ccc(F)cc3)[nH]c3c(F)cc(F)cc32)C1)N1CC(O)C(CO)C1 (stereo partly drawn) [Compound 138],0.25 to 1
21,NC(=O)[C@H](CO)NC(=O)[C@H]1C[C@H](c2c(-c3ccc(F)cc3)[nH]c3c(F)cc(F)cc32)C1 [Compound 144],0.25 to 1
22,O=C([C@H]1C[C@H](c2c(-c3ccc(F)cc3)[nH]c3c(F)cc(F)cc32)C1)N1CCCC1CCO (stereo partly drawn) [Compound 101],0.25 to 1
23,O=C(O)CNC(=O)[C@H]1C[C@H](c2c(-c3ccc(F)cc3)[nH]c3c(F)cc(F)cc32)C1 [Compound 10],> 1

row,Compound,IC50 [µM]
1,O=C([C@H]1C[C@H](c2c(-c3ccc(F)cc3)[nH]c3c(F)cc(F)cc32)C1)N1CCC(CO)(CO)CC1 [Compound 108],> 1
2,O=C([C@H]1C[C@H](c2c(-c3ccc(F)cc3)[nH]c3c(F)cc(F)cc32)C1)N1CCCC(CO)C1 (stereo partly drawn) [Compound 147],> 1
3,O=C([C@H]1C[C@H](c2c(-c3ccc(F)cc3)[nH]c3c(F)cc(F)cc32)C1)N1CCC[C@@H](O)C1 [Compound 149],< 0.25
4,CC1(C)CN(C(=O)[C@H]2C[C@H](c3c(-c4ccc(F)cc4)[nH]c4c(F)cc(F)cc43)C2)CCC1O (stereo partly drawn) [Compound 114],> 1
5,C[C@@H](O)[C@H](CO)NC(=O)[C@H]1C[C@H](c2c(-c3ccc(F)cc3)[nH]c3c(F)cc(F)cc32)C1 [Compound 155],0.25 to 1
6,CC(O)C1CCCN(C(=O)[C@H]2C[C@H](c3c(-c4ccc(F)cc4)[nH]c4c(F)cc(F)cc43)C2)C1 (stereo partly drawn) [Compound 131],> 1
7,O=C(NCCOCCO)[C@H]1C[C@H](c2c(-c3ccc(F)cc3)[nH]c3c(F)cc(F)cc32)C1 [Compound 125],< 0.25
8,O=C([C@H]1C[C@H](c2c(-c3ccc(F)cc3)[nH]c3c(F)cc(F)cc32)C1)N1CCC[C@H](O)C1 [Compound 105],0.25 to 1
9,O=C([C@H]1C[C@H](c2c(-c3ccc(F)cc3)[nH]c3c(F)cc(F)cc32)C1)N1CCCC(O)C1 (stereo partly drawn) [Compound 150],0.25 to 1
10,C[C@H]1CN(C(=O)[C@H]2C[C@H](c3c(-c4ccc(F)cc4)[nH]c4c(F)cc(F)cc43)C2)CC[C@@H]1O [Compound 116],> 1
11,O=C([C@H]1C[C@H](c2c(-c3ccc(F)cc3)[nH]c3c(F)cc(F)cc32)C1)N1CCOC(CO)C1 (stereo partly drawn) [Compound 148],> 1
12,O=C([C@H]1C[C@H](c2c(-c3ccc(F)cc3)[nH]c3c(F)cc(F)cc32)C1)N1C2CCC(C2)C1CO (stereo partly drawn) [Compound 97],> 1
13,O=C1C[C@@H](NC(=O)[C@H]2C[C@H](c3c(-c4ccc(F)cc4)[nH]c4c(F)cc(F)cc43)C2)C(=O)N1 [Compound 166],< 0.25
14,O=C(NC(CO)CO)[C@H]1C[C@H](c2c(-c3ccc(F)cc3)[nH]c3c(F)cc(F)cc32)C1 [Compound 8],< 0.25
15,O=C(NCCCO)[C@H]1C[C@H](c2c(-c3ccc(F)cc3)[nH]c3c(F)cc(F)cc32)C1 [Compound 104],< 0.25
16,O=C([C@H]1C[C@H](c2c(-c3ccc(F)cc3)[nH]c3c(F)cc(F)cc32)C1)N1CCOC(O)C1 (stereo partly drawn) [Compound 115],< 0.25
17,O=C1C[C@H](NC(=O)[C@H]2C[C@H](c3c(-c4ccc(F)cc4)[nH]c4c(F)cc(F)cc43)C2)C(=O)N1 [Compound 165],< 0.25
18,NC(=O)C1CCN(C(=O)[C@H]2C[C@H](c3c(-c4ccc(F)cc4)[nH]c4c(F)cc(F)cc43)C2)CC1 [Compound 133],> 1
19,CC(C)(NC(=O)[C@H]1C[C@H](c2c(-c3ccc(F)cc3)[nH]c3c(F)cc(F)cc32)C1)C(N)=O [Compound 11],< 0.25
20,C[C@@H](O)[C@@H](CO)NC(=O)[C@H]1C[C@H](c2c(-c3ccc(F)cc3)[nH]c3c(F)cc(F)cc32)C1 [Compound 160],< 0.25
21,CC(C)[C@@H](CO)NC(=O)[C@H]1C[C@H](c2c(-c3ccc(F)cc3)[nH]c3c(F)cc(F)cc32)C1 [Compound 141],0.25 to 1
22,O=C([C@H]1C[C@H](c2c(-c3ccc(F)cc3)[nH]c3c(F)cc(F)cc32)C1)N1CCCCC1CO (stereo partly drawn) [Compound 145],0.25 to 1
